Assay results: ChEMBL document CHEMBL4321794, “Discovery and Optimization of 2-Arylquinazolin-4-ones into a Potent and Selective Tankyrase Inhibitor Modulating Wnt Pathway Activity” (J Med Chem, 2019)
In brackets after ≈: the same amount, converted by molar mass.

Tests used:
[1] = Thermodynamic solubility in phosphate buffer at pH 7.4 at 2 mg incubated under shaking condition for 6 hrs followed by rechecking and readjusting pH to 7.4 and further incubated for 18 hrs by HPLC/UV detection method; assay type: physicochemical; details: read-out: Therm_solubility
[2] = molecular target: Protein mono-ADP-ribosyltransferase PARP6 (Homo sapiens, UniProt Q2NL67); test: Inhibition of N-terminal GST-tagged recombinant human full length PARP6 expressed in Baculovirus infected Sf9 cells using biotinylated substrate after 1 hr by chemiluminescence method
Protein mono-ADP-ribosyltransferase PARP6, sequence (Q2NL67 whole entry, the tested form may be a part): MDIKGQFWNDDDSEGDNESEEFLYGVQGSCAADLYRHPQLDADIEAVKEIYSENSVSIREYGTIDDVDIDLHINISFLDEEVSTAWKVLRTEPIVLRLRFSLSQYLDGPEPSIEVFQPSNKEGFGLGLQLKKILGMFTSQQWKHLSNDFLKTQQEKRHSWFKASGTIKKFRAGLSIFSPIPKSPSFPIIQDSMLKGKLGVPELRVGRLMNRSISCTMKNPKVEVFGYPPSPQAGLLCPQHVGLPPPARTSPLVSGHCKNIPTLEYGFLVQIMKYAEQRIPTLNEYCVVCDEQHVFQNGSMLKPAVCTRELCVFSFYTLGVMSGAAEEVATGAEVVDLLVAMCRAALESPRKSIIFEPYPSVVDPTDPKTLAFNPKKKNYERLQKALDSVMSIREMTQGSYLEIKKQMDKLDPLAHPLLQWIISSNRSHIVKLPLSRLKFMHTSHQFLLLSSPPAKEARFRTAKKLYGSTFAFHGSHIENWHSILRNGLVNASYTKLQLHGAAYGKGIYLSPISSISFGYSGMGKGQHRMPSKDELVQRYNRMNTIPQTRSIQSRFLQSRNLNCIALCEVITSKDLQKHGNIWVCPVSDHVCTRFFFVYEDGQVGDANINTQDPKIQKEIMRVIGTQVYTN

[3] = molecular target: T1, Protein mono-ADP-ribosyltransferase PARP10 (Homo sapiens, UniProt Q53GL7); test: Inhibition of human N-terminal FLAG-tagged/C-terminal Strep-tagged PARP10 (805 to 1025 residues) expressed in baculovirus infected Sf9 insect cells using biotinylated substrate by chemiluminescence method
T1 sequence (Q53GL7 whole entry): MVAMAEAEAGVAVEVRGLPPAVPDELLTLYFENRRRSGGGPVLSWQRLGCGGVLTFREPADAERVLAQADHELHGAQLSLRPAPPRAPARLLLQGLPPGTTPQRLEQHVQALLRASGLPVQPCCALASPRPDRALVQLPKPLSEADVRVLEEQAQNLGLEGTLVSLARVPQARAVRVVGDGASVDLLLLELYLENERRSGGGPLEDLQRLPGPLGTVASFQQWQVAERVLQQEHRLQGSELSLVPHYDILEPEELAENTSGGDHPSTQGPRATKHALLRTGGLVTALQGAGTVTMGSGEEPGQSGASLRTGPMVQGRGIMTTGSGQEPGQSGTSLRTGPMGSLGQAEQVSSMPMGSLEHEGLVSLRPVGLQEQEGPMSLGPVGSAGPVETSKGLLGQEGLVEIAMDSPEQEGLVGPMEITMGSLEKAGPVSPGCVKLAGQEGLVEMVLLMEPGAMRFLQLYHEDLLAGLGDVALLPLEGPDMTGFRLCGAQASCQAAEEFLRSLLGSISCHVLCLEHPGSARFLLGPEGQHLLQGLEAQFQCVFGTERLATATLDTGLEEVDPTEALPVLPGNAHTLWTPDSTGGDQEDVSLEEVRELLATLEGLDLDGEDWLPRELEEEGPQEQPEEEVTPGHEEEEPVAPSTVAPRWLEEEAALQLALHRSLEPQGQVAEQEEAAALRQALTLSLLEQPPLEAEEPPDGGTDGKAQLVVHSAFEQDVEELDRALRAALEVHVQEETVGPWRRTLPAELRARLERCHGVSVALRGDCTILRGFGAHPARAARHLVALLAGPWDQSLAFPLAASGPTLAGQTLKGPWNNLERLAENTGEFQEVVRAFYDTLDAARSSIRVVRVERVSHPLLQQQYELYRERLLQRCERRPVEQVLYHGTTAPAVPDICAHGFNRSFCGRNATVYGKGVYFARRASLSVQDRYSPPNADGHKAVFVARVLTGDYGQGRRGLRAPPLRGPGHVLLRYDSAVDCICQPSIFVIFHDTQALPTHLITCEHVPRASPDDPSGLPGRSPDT

[4] = molecular target: T2, Protein mono-ADP-ribosyltransferase PARP12 (Homo sapiens, UniProt Q9H0J9); test: Inhibition of human N-terminal His/GST-tagged PARP12 (500 to 701 residues) expressed in baculovirus infected Sf9 insect cells using biotinylated substrate by chemiluminescence method
T2 sequence (Q9H0J9 whole entry): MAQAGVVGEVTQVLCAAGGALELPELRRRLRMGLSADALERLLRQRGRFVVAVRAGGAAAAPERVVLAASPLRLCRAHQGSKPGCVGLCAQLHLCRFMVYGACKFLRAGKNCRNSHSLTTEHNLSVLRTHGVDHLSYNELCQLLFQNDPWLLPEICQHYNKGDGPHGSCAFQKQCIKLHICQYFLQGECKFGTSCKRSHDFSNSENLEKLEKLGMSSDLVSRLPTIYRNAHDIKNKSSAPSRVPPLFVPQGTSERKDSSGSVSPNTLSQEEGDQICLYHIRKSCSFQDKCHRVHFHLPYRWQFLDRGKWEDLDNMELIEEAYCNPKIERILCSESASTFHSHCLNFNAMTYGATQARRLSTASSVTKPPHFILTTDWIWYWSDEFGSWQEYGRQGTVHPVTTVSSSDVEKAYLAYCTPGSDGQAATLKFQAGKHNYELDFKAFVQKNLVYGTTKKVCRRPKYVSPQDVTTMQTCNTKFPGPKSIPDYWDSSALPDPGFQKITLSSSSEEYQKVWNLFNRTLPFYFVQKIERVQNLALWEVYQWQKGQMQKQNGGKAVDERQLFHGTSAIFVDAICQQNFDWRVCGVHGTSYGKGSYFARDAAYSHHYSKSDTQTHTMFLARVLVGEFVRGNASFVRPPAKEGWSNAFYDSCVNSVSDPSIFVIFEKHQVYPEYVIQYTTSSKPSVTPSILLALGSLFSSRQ

[5] = molecular target: T3, Protein mono-ADP-ribosyltransferase PARP3 (Homo sapiens, UniProt Q9Y6F1); test: Inhibition of N-terminal GST-tagged recombinant full length human PARP3 expressed in Baculovirus infected Sf9 cells using biotinylated substrate after 1 hr by chemiluminescence method
T3 sequence (Q9Y6F1 whole entry): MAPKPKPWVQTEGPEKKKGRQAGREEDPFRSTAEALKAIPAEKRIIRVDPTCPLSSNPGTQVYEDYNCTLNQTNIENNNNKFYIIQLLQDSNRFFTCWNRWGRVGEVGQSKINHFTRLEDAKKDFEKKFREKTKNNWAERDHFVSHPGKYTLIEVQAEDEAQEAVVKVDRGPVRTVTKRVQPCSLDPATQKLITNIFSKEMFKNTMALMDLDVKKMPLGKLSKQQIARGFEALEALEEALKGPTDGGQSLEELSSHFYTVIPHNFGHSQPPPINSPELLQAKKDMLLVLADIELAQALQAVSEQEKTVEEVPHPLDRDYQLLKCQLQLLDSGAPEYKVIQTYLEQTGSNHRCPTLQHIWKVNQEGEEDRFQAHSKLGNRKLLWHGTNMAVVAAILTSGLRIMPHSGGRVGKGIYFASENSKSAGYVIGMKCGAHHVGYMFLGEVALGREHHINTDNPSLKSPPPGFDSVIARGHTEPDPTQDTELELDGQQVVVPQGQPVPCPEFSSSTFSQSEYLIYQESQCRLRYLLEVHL

[6] = Apparent permeability across apical to basolateral side in human Caco2 cells at 1 uM after 2 hrs by LC-MS/MS analysis; assay type: ADME, cell-based; details: Caco-2
[7] = Time at which free-drug concentration exceeds in vitro cellular EC50 for inhibition of tankyrase 1/2 in human DLD1 cells assessed as increase in axin2 accumulation in mouse xenografted with human DLD1 at 30 mg/kg, po administered via gavage; assay type: organism-based; details: in vivo

CC(C)(O)c1ccc(-c2nc3c(F)cc(F)cc3c(=O)[nH]2)cc1
solubility thermodynamic at 24 h [1]: 31 µg/mL (≈ 98 µM) | IC50 [2]: > 10 µM | IC50 [3]: > 10 µM | IC50 [4]: > 10 µM | IC50 [5]: 1.9 µM | Papp A→B at 2 h, 1 µM [6]: 40 ×10⁻⁶ cm/s | T>fEC50 [7]: >= 12 hr
